The source of these data is patent publication US10520492B2, “Method of screening for candidate compounds for regulating melanogenesis or pigmentation” (CHANEL PARFUMS BEAUTE, priority 2013, dated 2019).

Assay [1] concerns tyrosinase. Briefly: Western blotting of tyrosinase in G361 cells. In kind it is cell-based, human. The procedure: (§1) Cells were grown and treated in 6-well plates. After transfections or drug treatments as described above, the cells were lysed with RIPA lysis buffer. Cell lysate (30 μg) was resolved on SDS-PAGE followed by transfer onto a nitrocellulose membrane (Millipore) using a semidry transfer blotter. Immunoassays were done with anti-mortalin, anti-HSP70 and anti-tyrosinase antibodies. The immunocomplexes formed were visualized with horseradish peroxidase-conjugated anti-rabbit/mouse immunoglobulin G. The bands were detected by LAS 3000 mini (FujiFilm).

Assay [2] deals with human melanoma cells G361. Briefly: Melanosome immunostaining in G361 cells. In kind it is cell-based. To be noted: OAG-treated vs control G361 cells, FIG. 1B. The procedure: (§2) The human melanoma G361 were bought from Cell Resource Center for Biomedical Research, Tohoku University, Japan and were cultured in DMEM (Dulbecco's Modified Eagle's Medium, Invitrogen) supplemented with 10% fetal bovine serum in a humidified incubator (37° C. and 5% CO2). Human primary melanocytes from the light and dark skin donors were bought from ScienCell Research Laboratories and were cultured in the recommended melanocyte growth medium. Cells were transfected with the expression plasmids coding for either mortalin or HSP60 protein using Fugene (Roche) as per recommended protocol. Typically 3-5 μg of plasmid DNA was used for 6 cms culture dish at 70-80% confluency. Cells were incubated with the plasmids for 48 hrs after which cells were harvested and examined for the expression indicated genes by protocols as described below. For shRNA transfections, Oligofectamine™ Transfection Reagent (Life Technologies™) was used as per manufacturer's instructions. Transfected cells were incubated with medium supplemented with puromycin (1 ug/ml) for 24-48 hrs and were then processed for assays as described below.
(§3) Cells were cultured and treated on glass coverslips placed in 12-well culture dish. […]

Assay [3] deals with tyrosinase. Description: Tyrosinase ELISA (tyrosinase activity assay) in G361 cells. In kind it is cell-based, human. How it is done: Cells (Approximately 10000 cells/well) were plated in 96 well Nunc-Immuno maxisorp plates. At about 70% confluency, cells were transfected with shRNA plasmids (100 ng/well) as described above. After 24 hrs post-transfection, the cells were selected in puromycin-supplemented medium and were then processed for tyrosinase ELISA as described below. Cells were washed with PBS twice and were lysed in RIPA lysis buffer (Santa Cruz Biotechnology). Protein concentrations of the lysates were determined (Pierce BCA Protein Assay kit, Thermo Scientific) and the samples were diluted to 1 ug/ul concentration in coating buffer (0.1 M Sodium bicarbonate, 0.02% Sodium Azide pH-9.6). 5 μg of the protein sample was added to each well in a final volume of 100 μl of the coating buffer. The plates were gently shaken for 10 min and were then securely sealed and left for 2 hrs at room temperature. The solution was discarded and the plates were washed with washing buffer (PBS-0.5% TWEEN® 20, which is polysorbate 20) for 5 min. Blocking buffer (200 ul) was added to each well and the plates were incubated for 2 hours at room temperature followed by washings with the Washing buffer twice (3 min each). Anti-tyrosinase antibody (50 μl, 5 μg/ml in the blocking buffer) was added to each well and the plated were sealed and kept at room temperature for 1-2 hrs followed by washings with the washing buffer (3×10 min). The plates were incubated with the secondary antibody (Alkaline phosphatase, AP-Goat anti Rabbit IgG) for 1 hr and were then washed with the washing buffer for 3-5 times. The 100 μl of the substrate for AP (Nitrophenyl Phosphate, Disodium Salt, PNPP) was added to each well. Plates were again sealed and left for 30 min followed by measuring the absorbance at 405 nm that represented the quantitative estimation of tyrosinase expression.
In general terms: An ELISA detects its analyte on a solid surface through an enzyme-linked reagent.

Assay [4] relates to mortalin. Briefly: Immunostaining of mortalin upon OAG induction. The assay is classed as cell-based, human. To be noted: induction of melanogenesis by OAG, FIG. 5. How it is done:
(§4) Cells were cultured and treated on glass coverslips placed in 12-well culture dish. At the end of the treatment as described above, coverslips were washed with cold phosphate-buffered saline (PBS) and the cells were fixed with pre-chilled methanol:acetone (1:1 v/v) mixture for 5-10 min. Fixed cells were washed with PBS, permeabilized with 0.2% TRITON™ X-100 (4-(1,1,3,3-Tetramethylbutyl)phenyl-polyethylene glycol) in PBS for 10 min, and blocked with 2% bovine serum albumin (BSA) in PBS for 20 min. Cells were stained with anti-mortalin, anti-HSP60, anti-tyrosinase and anti-melanosome antibodies. Immunostaining was visualized by secondary staining with Alexa-488 or Alexa-594 conjugated antibodies (Molecular probes). After three to four washings with 0.2% TRITON™ X-100 in PBS (PBST), cells were overlaid with Fluoromount (Difco). The cells were examined with Carl Zeiss microscope with epifluorescence optics.

The test system of the next assay is G361 cells. Briefly: Melanin content in G361 cells. In kind it is cell-based, human. To be noted: for OAG-induced melanin content: OAG-treated G361 cells, recovery with test substance. How it is done: Cells were treated with Di-acyl glycerol (OAG, 20 μg/ml) for 24 h followed by recovery either in the normal medium as described below or Vitamin C (0.1-0.3 mM) for 24 to 48 hrs.
(§5) G361 cells were cultured overnight and allowed to adhere to the surface well after which they were treated with TXC supplemented medium or OAG as described below followed by recovery in the TXC medium at doses indicated in the data figs.
Cells were plated in 96 well plates and allowed to attach well to the surface of the plate for 24 hours followed by transfections and treatments as described above and indicated in the figure legends. Cells were washed with PBS. Potassium hydroxide (KOH-0.85 N, 100 μl) was added to each. The plates were shaken gently in dark for overnight. Absorbance of the pigment was measured at 405 nm. Melanin content was calculated by using standard purified melanin (Sigma).

Assay [5] concerns mortalin. Briefly: Mortalin expression (immunoblotting) in G361 cells. In kind it is cell-based, human. The procedure:
as §5, §1
A general note: In western blotting, separated proteins are transferred to a membrane and probed.

The test system of assay [6] is Hsp60. Briefly: Immunostaining of Hsp60 upon OAG induction. In kind it is cell-based, human. The conditions noted are these: induction of melanogenesis by OAG, FIG. 4. How it is done: as §4
The subject of assay [7] is primary melanocytes from a skin donor. Description: Melanosome immunostaining in primary melanocytes from donor. The assay is classed as cell-based, human. To be noted: OAG-treated vs control primary melanocytes, FIG. 1A. How it is done: as §2, §3
Assay [8] has as its system Hsp60. Description: Hsp60 expression in G361 cells. In kind it is cell-based, human. The conditions noted are these: FIG. 13B, Hydrochloride Salt.

Entries after “also recorded” stand apart in the source; their conditions may differ.

In the case of `CCCCCCCC/C=C\CCCCCCCC(=O)OC[C@H](CO)OC(C)=O` [OAG, 1-oleoyl-2-acetyl-sn-glycero], in the assay on tyrosinase [1] (OAG-treated G361 cells, FIG. 3A), the tyrosinase expression entry is “increase”. The melanosome production entry in assay [2] and in assay [7] was “induced” each time. Also, in the assay on tyrosinase [3] (OAG-treated G361 cells, FIG. 3B), the tyrosinase activity entry is listed as “increase”. Also, in the assay with mortalin [4], the “mortalin level (immunostaining)” value is given as “upregulation”. Moreover, the melanin content result with G361 cells (G361 cells treated with OAG, FIG. 2) was “Increase”. The mortalin expression entry in the assay with mortalin [5] (G361 cells treated with OAG, FIG. 13C) is “Increase”. For the same compound, in the assay with Hsp60 [6], the “Hsp60 level (immunostaining)” value is “upregulation”.
In the case of `O=C1O[C@H]([C@@H](O)CO)C(O)=C1O` [Vitamin C], in the assay with tyrosinase [3] (OAG-treated G361 cells then Vitamin C, FIG. 3), the OAG-induced tyrosinase result is recorded as “decrease”. Besides, the OAG-induced melanin content entry in the assay with G361 cells is “reduction”.
`CCCCCCCCCCCCCCCCOC(=O)C1CCC(CN)CC1.Cl` (centres unmarked) [TXC, Cetyl Tranexamate Hydrochloride Salt]: the “endogenous expression of tyrosinase” value in the assay on tyrosinase [1] (G361 cells, FIG. 13A, Hydrochloride Salt) was “Reduction; also recorded: decreases”. Besides, the OAG-induced tyrosinase activity entry in the assay with tyrosinase [3] (OAG-treated G361 cells, TXC at various concentrations, FIG. 12) is “reduction”. The OAG-induced melanin content entry in the assay with G361 cells was “reduction”. In the assay on G361 cells (OAG-untreated G361 cells), the endogenous melanin entry is “reduction”. The “OAG-induced expression of Mortalin” value with mortalin [5] (G361 cells treated with OAG, then recovery in presence of test substance, Hydrochloride Salt) is on record as “reduction; also recorded: decrease”. The “endogenous expression of Mortalin” value in the assay on mortalin [5] (G361 cells, FIG. 13, Hydrochloride Salt) is on record as “reduction; also recorded: decreases”. In addition, the “endogenous expression of Hsp60” value with Hsp60 [8] was “Reduction; also recorded: decreases”.
